Experimental data as given in US20260305610A1, “TRIAZOLE COMPOUND, AND PREPARATION METHOD THEREFOR, HERBICIDAL COMPOSITION AND USE THEREOF” (QINGDAO KINGAGROOT CHEMICAL COMPOUND CO., LTD., priority 2023, published 2026).

How the values were obtained:
[1] = system: major crops; assay: Pre-emergence test experiment (crops); format: in vivo; set-up: key: 9: completely dead; 8: growth control rate is greater than or equal to 90% and less than 100%; 7: growth control rate is greater than or equal to 80% and less than 90%; 6: growth control rate is greater than or equal to 70% and less than 80%; growth control rate is greater than or equal to 50% and less than 70%; 4: growth control rate is greater than or equal to 30% and less than 50%; growth control rate is greater than or equal to 20% and less than 30%; growth control rate is greater than or equal to 10% and less than 20%; growth control rate is less than 10%; 0: no effect; conditions: 30 g a.i./ha
[2] = system: monocotyledonous and dicotyledonous weeds; assay: Pre-emergence test experiment (weeds); format: in vivo; set-up: key: 9: completely dead; 8: growth control rate is greater than or equal to 90% and less than 100%; 7: growth control rate is greater than or equal to 80% and less than 90%; 6: growth control rate is greater than or equal to 70% and less than 80%; growth control rate is greater than or equal to 50% and less than 70%; 4: growth control rate is greater than or equal to 30% and less than 50%; growth control rate is greater than or equal to 20% and less than 30%; growth control rate is greater than or equal to 10% and less than 20%; growth control rate is less than 10%; 0: no effect; conditions: 30 g a.i./ha

Cc1ccc(-n2cnc(C(F)F)n2)nc1Oc1ccc(F)c(OC(F)(F)F)c1 [Compound 80]
Pre-emergence plant damage level (growth control rate) on Corn [1]: 0 | Pre-emergence plant damage level (growth control rate) on Cotton [1]: 0 | Pre-emergence plant damage level (growth control rate) on Soybean [1]: 0 | Pre-emergence activity level (growth control rate) on Amaranthus retroflexus [2]: 9 | Pre-emergence activity level (growth control rate) on Descurainia sophia [2]: 9 | Pre-emergence activity level (growth control rate) on Digitaria sanguinalis [2]: 9 | Pre-emergence activity level (growth control rate) on Setaria viridis [2]: 8 (growth control rate is greater than or equal to 90% and less than 100%) | Pre-emergence activity level (growth control rate) on Solanum nigrum [2]: 9 | Pre-emergence activity level (growth control rate) on Veronica [2]: 9

Cc1ccc(-n2cnc(C(F)F)n2)nc1Oc1cccc(F)c1 [Compound 81]
Pre-emergence activity level (growth control rate) on Amaranthus retroflexus [2]: 9 | Pre-emergence activity level (growth control rate) on Descurainia sophia [2]: 9 | Pre-emergence activity level (growth control rate) on Veronica [2]: 9

COCc1ccc(-n2cnc(C(F)(F)F)n2)nc1Oc1cccc(C(F)F)c1 [Compound 144]
Pre-emergence plant damage level (growth control rate) on Corn [1]: 0 | Pre-emergence plant damage level (growth control rate) on Cotton [1]: 0 | Pre-emergence plant damage level (growth control rate) on Soybean [1]: 0 | Pre-emergence activity level (growth control rate) on Amaranthus retroflexus [2]: 9 | Pre-emergence activity level (growth control rate) on Descurainia sophia [2]: 9 | Pre-emergence activity level (growth control rate) on Digitaria sanguinalis [2]: 8 (growth control rate is greater than or equal to 90% and less than 100%) | Pre-emergence activity level (growth control rate) on Setaria viridis [2]: 9 | Pre-emergence activity level (growth control rate) on Solanum nigrum [2]: 9 | Pre-emergence activity level (growth control rate) on Veronica [2]: 9

CCCc1ccc(-n2cnc(C(F)(F)F)n2)nc1Oc1cccc(C(F)(F)F)c1 [Compound 21]
Pre-emergence plant damage level (growth control rate) on Corn [1]: 0 | Pre-emergence plant damage level (growth control rate) on Cotton [1]: 0 | Pre-emergence plant damage level (growth control rate) on Soybean [1]: 0 | Pre-emergence activity level (growth control rate) on Amaranthus retroflexus [2]: 9 | Pre-emergence activity level (growth control rate) on Descurainia sophia [2]: 9 | Pre-emergence activity level (growth control rate) on Digitaria sanguinalis [2]: 8 (growth control rate is greater than or equal to 90% and less than 100%) | Pre-emergence activity level (growth control rate) on Setaria viridis [2]: 8 (growth control rate is greater than or equal to 90% and less than 100%) | Pre-emergence activity level (growth control rate) on Solanum nigrum [2]: 7 (growth control rate is greater than or equal to 80% and less than 90%) | Pre-emergence activity level (growth control rate) on Veronica [2]: 9

Cc1ccc(-n2cnc(C(F)(F)C(F)(F)F)n2)nc1Oc1cccc(C(F)(F)F)c1 [Compound 14]
Pre-emergence plant damage level (growth control rate) on Corn [1]: 0 | Pre-emergence plant damage level (growth control rate) on Cotton [1]: 0 | Pre-emergence plant damage level (growth control rate) on Soybean [1]: 0 | Pre-emergence activity level (growth control rate) on Amaranthus retroflexus [2]: 9 | Pre-emergence activity level (growth control rate) on Descurainia sophia [2]: 9 | Pre-emergence activity level (growth control rate) on Digitaria sanguinalis [2]: 8 (growth control rate is greater than or equal to 90% and less than 100%) | Pre-emergence activity level (growth control rate) on Setaria viridis [2]: 9 | Pre-emergence activity level (growth control rate) on Solanum nigrum [2]: 9 | Pre-emergence activity level (growth control rate) on Veronica [2]: 9

CCc1ccc(-n2cnc(C(F)(F)F)n2)nc1Oc1cccc(C(C)(F)F)c1 [Compound 69]
Pre-emergence plant damage level (growth control rate) on Corn [1]: 0 | Pre-emergence plant damage level (growth control rate) on Cotton [1]: 0 | Pre-emergence plant damage level (growth control rate) on Soybean [1]: 0 | Pre-emergence activity level (growth control rate) on Amaranthus retroflexus [2]: 9 | Pre-emergence activity level (growth control rate) on Descurainia sophia [2]: 9 | Pre-emergence activity level (growth control rate) on Digitaria sanguinalis [2]: 9 | Pre-emergence activity level (growth control rate) on Setaria viridis [2]: 9 | Pre-emergence activity level (growth control rate) on Solanum nigrum [2]: 9 | Pre-emergence activity level (growth control rate) on Veronica [2]: 9

Cc1ccc(-n2cnc(C(F)(F)C(F)(F)F)n2)nc1Oc1cncc(C(F)(F)F)c1 [Compound 15]
Pre-emergence plant damage level (growth control rate) on Corn [1]: 0 | Pre-emergence plant damage level (growth control rate) on Cotton [1]: 0 | Pre-emergence plant damage level (growth control rate) on Soybean [1]: 0 | Pre-emergence activity level (growth control rate) on Amaranthus retroflexus [2]: 9 | Pre-emergence activity level (growth control rate) on Descurainia sophia [2]: 9 | Pre-emergence activity level (growth control rate) on Digitaria sanguinalis [2]: 8 (growth control rate is greater than or equal to 90% and less than 100%) | Pre-emergence activity level (growth control rate) on Setaria viridis [2]: 9 | Pre-emergence activity level (growth control rate) on Solanum nigrum [2]: 8 (growth control rate is greater than or equal to 90% and less than 100%) | Pre-emergence activity level (growth control rate) on Veronica [2]: 9

Cc1ccc(-n2cnc(C3CC3)n2)nc1Oc1cccc(C(F)(F)F)c1 [Compound 100]
Pre-emergence activity level (growth control rate) on Setaria viridis [2]: 9 | Pre-emergence activity level (growth control rate) on Solanum nigrum [2]: 8 (growth control rate is greater than or equal to 90% and less than 100%)

Cc1cc(Oc2cccc(OC(F)(F)F)c2)nc(-n2cnc(C(F)(F)F)n2)c1 [Compound 122]
Pre-emergence activity level (growth control rate) on Amaranthus retroflexus [2]: 8 (growth control rate is greater than or equal to 90% and less than 100%) | Pre-emergence activity level (growth control rate) on Descurainia sophia [2]: 9 | Pre-emergence activity level (growth control rate) on Digitaria sanguinalis [2]: 8 (growth control rate is greater than or equal to 90% and less than 100%) | Pre-emergence activity level (growth control rate) on Setaria viridis [2]: 9 | Pre-emergence activity level (growth control rate) on Veronica [2]: 8 (growth control rate is greater than or equal to 90% and less than 100%)

Cc1cc(Oc2ccc(F)c(C(F)(F)F)c2)nc(-n2cnc(C(F)(F)F)n2)c1 [Compound 120]
Pre-emergence activity level (growth control rate) on Descurainia sophia [2]: 9

COCc1ccc(-n2cnc(C(F)(F)F)n2)nc1Oc1cccc(F)c1 [Compound 138]
Pre-emergence activity level (growth control rate) on Descurainia sophia [2]: 9 | Pre-emergence activity level (growth control rate) on Solanum nigrum [2]: 9

Cc1ccc(-n2cnc(C(F)(F)C(F)(F)F)n2)nc1Oc1ccc(F)c(C(F)(F)F)c1 [Compound 126]
Pre-emergence activity level (growth control rate) on Descurainia sophia [2]: 9 | Pre-emergence activity level (growth control rate) on Solanum nigrum [2]: 9

CCc1ccc(-n2cnc(C(F)(F)F)n2)nc1Oc1cncc(C#N)c1 [Compound 94]
Pre-emergence activity level (growth control rate) on Setaria viridis [2]: 8 (growth control rate is greater than or equal to 90% and less than 100%)

Cc1cc(Oc2ccc(F)c(OC(F)(F)F)c2)nc(-n2cnc(C(F)(F)F)n2)c1 [Compound 123]
Pre-emergence activity level (growth control rate) on Descurainia sophia [2]: 9

Cc1ccc(-n2cnc(C(F)(F)F)n2)nc1Oc1cccc(C#N)c1 [Compound 88]
Pre-emergence activity level (growth control rate) on Amaranthus retroflexus [2]: 9 | Pre-emergence activity level (growth control rate) on Solanum nigrum [2]: 9

CCc1ccc(-n2cnc(C(F)(F)F)n2)nc1Oc1cccc(F)c1 [Compound 129]
Pre-emergence activity level (growth control rate) on Digitaria sanguinalis [2]: 8 (growth control rate is greater than or equal to 90% and less than 100%) | Pre-emergence activity level (growth control rate) on Setaria viridis [2]: 9

CSc1cc(Oc2cncc(C(F)(F)F)c2)nc(-n2cnc(C(F)(F)F)n2)c1 [Compound 111]
Pre-emergence activity level (growth control rate) on Descurainia sophia [2]: 9 | Pre-emergence activity level (growth control rate) on Setaria viridis [2]: 8 (growth control rate is greater than or equal to 90% and less than 100%)

CCc1ccc(-n2cnc(C(F)F)n2)nc1Oc1cccc(Cl)c1 [Compound 131]
Pre-emergence activity level (growth control rate) on Solanum nigrum [2]: 9

Cc1ccc(-n2cnc(C(F)(F)C(F)(F)F)n2)nc1Oc1cccc(C(F)F)c1 [Compound 125]
Pre-emergence activity level (growth control rate) on Descurainia sophia [2]: 9 | Pre-emergence activity level (growth control rate) on Solanum nigrum [2]: 9

CCc1ccc(-n2cnc(C(F)F)n2)nc1Oc1cccc(F)c1 [Compound 128]
Pre-emergence activity level (growth control rate) on Solanum nigrum [2]: 9

CCc1ccc(-n2cnc(C(F)(F)F)n2)nc1Oc1cccc(C)c1 [Compound 134]
Pre-emergence activity level (growth control rate) on Amaranthus retroflexus [2]: 8 (growth control rate is greater than or equal to 90% and less than 100%) | Pre-emergence activity level (growth control rate) on Descurainia sophia [2]: 9 | Pre-emergence activity level (growth control rate) on Digitaria sanguinalis [2]: 8 (growth control rate is greater than or equal to 90% and less than 100%)

Cc1ccc(-n2cnc(C(F)(F)C(F)(F)F)n2)nc1Oc1cccc(OC(F)F)c1 [Compound 127]
Pre-emergence activity level (growth control rate) on Descurainia sophia [2]: 9 | Pre-emergence activity level (growth control rate) on Setaria viridis [2]: 8 (growth control rate is greater than or equal to 90% and less than 100%) | Pre-emergence activity level (growth control rate) on Solanum nigrum [2]: 9

CCc1ccc(-n2cnc(C(F)(F)F)n2)nc1Oc1cccc(Cl)c1 [Compound 130]
Pre-emergence activity level (growth control rate) on Descurainia sophia [2]: 9 | Pre-emergence activity level (growth control rate) on Solanum nigrum [2]: 9

CCc1ccc(-n2cnc(C(F)(F)F)n2)nc1Oc1cccc(C#N)c1 [Compound 89]
Pre-emergence activity level (growth control rate) on Amaranthus retroflexus [2]: 9 | Pre-emergence activity level (growth control rate) on Digitaria sanguinalis [2]: 9 | Pre-emergence activity level (growth control rate) on Setaria viridis [2]: 9

CSc1cc(Oc2cccc(OC(F)(F)F)c2)nc(-n2cnc(C(F)(F)F)n2)c1 [Compound 87]
Pre-emergence activity level (growth control rate) on Veronica [2]: 8 (growth control rate is greater than or equal to 90% and less than 100%)

CCc1ccc(-n2cnc(C(F)(F)F)n2)nc1Oc1ccc(F)c(C#N)c1 [Compound 96]
Pre-emergence activity level (growth control rate) on Amaranthus retroflexus [2]: 8 (growth control rate is greater than or equal to 90% and less than 100%) | Pre-emergence activity level (growth control rate) on Descurainia sophia [2]: 9

CSc1cc(Oc2cccc(C(F)(F)F)c2)nc(-n2cnc(C(F)(F)F)n2)c1 [Compound 86]
Pre-emergence activity level (growth control rate) on Veronica [2]: 9

Cc1cc(Oc2cccc(Cl)c2)nc(-n2cnc(C(F)(F)F)n2)c1 [Compound 121]
Pre-emergence activity level (growth control rate) on Descurainia sophia [2]: 9
